“Also recorded” adds a separate entry of the source.
Key:
[1] = tested on: CD8^+ T lymphocytes; assay: Proliferation of anti-CD3 plus IL-2 activated CD8+ T lymphocytes; assay type: cell-based, BALB/c mouse
Excerpt: Growth curves of lymph node T cells depleted of antigen-presenting cells (FIG. 17A) with and without 10^-6 M retinol at 2×10^5 and 5×10^4 cells/well. (FIG. 17B) Dose-responses elicited by different retinoids in cultures of lymph node T cells depleted of antigen-presenting cells. Also shown are the growth curves of CD4^+ (FIG. 17C) and CD8^+ T lymphocytes (FIG. 17D) in the presence of either retinol, 14HRR, human serum or in their absence.
T lymphocytes, purified as described, 5×10^4 /well, were activated with immobilized anti-CD3 antibody in ITLB medium. The indicated amounts of retinoids or human serum were added at initiation of cultures. […] 14HRR was added every 12 hours. DNA synthesis was measured by a 4 hour pulse with tritiated thymidine. SDs were ≤17%.
Mature T cells were obtained from pooled intestinal, axillary, inguinal and submandibular lymph nodes of 4 to 10-week-old BALB/c mice. To fractionate cells into CD4 and CD8 subsets and at the same time remove APC, a combination of adherence and complement lysis was used as follows:
The cell suspension in a volume of 2 ml was applied to a nylon wool column (40) (0.6 g of washed nylon fibers in the barrel of a 10 ml syringe) and incubated at 37° C. for 40 min. […] The success of the enrichment procedures was monitored cytofluorimetrically using FITC-conjugated anti-CD8 and PE-conjugated anti-CD4. […]

[2] = tested on: EL-4; assay: Retinol metabolism, EL-4; assay type: in vitro ADME, mouse
Description: (§1) Legend: 2.5×10^6 cells were grown overnight in 5 ml RPMI/10% FBS. The FBS was preincubated at room temperature with 14.4 uCi [^3 H] retinol (NEN) for 4h. The cell pellet was washed twice with PBS. The retinoid were extracted according to MClean et al. 90 and separated on an analytical c18 reverse phase column according to FIG. 7. The DPM were determined using an on-line scintillation counter.

[3] = tested on: Raji; assay: Retinol metabolism, Raji; assay type: in vitro ADME, human
Description: as §1

[4] = tested on: SK3886; assay: Retinol metabolism, SK3886; assay type: in vitro ADME
Description: as §1

[5] = tested on: 26 mammalian cells; assay: 3H retinol conversion to P3/14HRR in 26 mammalian cells; assay type: in vitro ADME; settings: retinol bound to fetal calf serum
Description: The use of ^3 H retinol bound to fetal calf serum was used as an assay to test for P3 in other cell lines.
The use of ^3 H retinol bound to fetal calf serum was used as an assay to test for 14HRR in other cell lines.
as §1

[6] = tested on: SKL3; assay: Retinol metabolism, SKL3; assay type: in vitro ADME, human
Description: as §1

Ester (% of taken up retinol) [2]	P3 (% of taken up retinol) [2]	Total cts. [2]	Ester (% of taken up retinol) ([3]; 4°)	P3 (% of taken up retinol) ([3]; 4°)	Total cts. ([3]; 4°)	Ester (% of taken up retinol) ([3]; 37°)	P3 (% of taken up retinol) ([3]; 37°)	Total cts. ([3]; 37°)	Ester (% of taken up retinol) [4]	P3 (% of taken up retinol) [4]	Total cts. [4]	Ester (% of taken up retinol) [6]	P3 (% of taken up retinol) [6]	Total cts. [6]	SMILES	response of CD8+ subset to anti-CD3 plus IL-2 [1]	formation of P3/14HRR from 3H retinol [5]
–	–	–	–	–	–	–	–	–	–	–	–	–	–	–	CC(C=CC=C(C)C(O)CO)=CC=C1C(C)=CCCC1(C)C (centres unmarked) [14HRR, 14-hydroxy-4,14-retro-retinol]	responded to the activating signal	–
44%	5%	2.8 × 10^5 cts.	0%	0%	2.5 × 10^5 cts.	14%	3%	4.0 × 10^5 cts.	2%	3%	4.7 × 10^5 cts.	24%	2%	1.6 × 10^5 cts.	CC1=C(/C=C/C(C)=C/C=C/C(C)=C/CO)C(C)(C)CCC1 [retinol, all-trans retinol]	–	radioactivity peak at the position where 14HRR normally elutes; also recorded: radioactivity peak at the position where P3 normally elutes
